Test results from PubChem BioAssay (NCI).
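Dose response: 5 concentrations. Exposure: 48 h. Format: 96-well plates. Endpoint: linear interpolation; highest concentration if not reached. At the GI50, growth is halved. TGI: concentration producing complete growth inhibition.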

What was measured:
Test in all cases: NCI tumour cell line growth inhibition, 48 h
[1] = tested on: RXF 393 renal
[2] = tested on: UACC-257 melanoma
[3] = tested on: MCF7 breast
[4] = tested on: NCI-H23 lung
[5] = tested on: SF-295 CNS
[6] = tested on: CCRF-CEM leukemia
[7] = tested on: HL-60(TB) leukemia
[8] = tested on: PC-3 prostate
[9] = tested on: SF-539 CNS
[10] = tested on: NCI-H522 lung
[11] = tested on: OVCAR-3 ovarian
[12] = tested on: M14 melanoma
[13] = tested on: SW-620 colon
[14] = tested on: SK-MEL-5 melanoma
[15] = tested on: HT29 colon
[16] = tested on: HS 578T breast
[17] = tested on: CAKI-1 renal
[18] = tested on: NCI-H226 lung
[19] = tested on: SF-268 CNS
[20] = tested on: MDA-MB-435
[21] = tested on: OVCAR-4 ovarian
[22] = tested on: UACC-62 melanoma
[23] = tested on: A549 NSCLC
[24] = tested on: SNB-75 CNS
[25] = tested on: A498 renal
[26] = tested on: 786-0 renal
[27] = tested on: COLO 205 colon
[28] = tested on: OVCAR-8 ovarian
[29] = tested on: HOP-62 NSCLC
[30] = tested on: SNB-19 CNS
[31] = tested on: DU-145 prostate
[32] = tested on: SK-MEL-28 melanoma
[33] = tested on: SK-MEL-2 melanoma
[34] = tested on: LOX IMVI melanoma
[35] = tested on: NCI-H460 lung
[36] = tested on: T-47D breast
[37] = tested on: HCT-15 colon
[38] = tested on: MALME-3M melanoma
[39] = tested on: ACHN renal
[40] = tested on: OVCAR-5 ovarian
[41] = tested on: U251 CNS
[42] = tested on: BT-549 breast
[43] = tested on: EKVX NSCLC
[44] = tested on: MDA-MB-231 breast
[45] = tested on: SN12C renal
[46] = tested on: RPMI-8226 leukemia
[47] = tested on: UO-31 renal
[48] = tested on: HCT-116 colon
[49] = tested on: K-562 leukemia
[50] = tested on: NCI/ADR-RES ovarian
[51] = tested on: HOP-92 NSCLC
[52] = tested on: SR leukemia
[53] = tested on: KM12 colon
[54] = tested on: HCC-2998 colon
[55] = tested on: MOLT-4 leukemia
[56] = tested on: SK-OV-3 ovarian
[57] = tested on: TK-10 renal

SMILES: CN(C)CCN1C(=O)c2cccc3c(N)ccc(c23)C1=O
- GI50 [1]: 7.91 µM
- TGI [1]: 24.8 µM
- GI50 [2]: 11.2 µM
- TGI [2]: > 25 µM
- GI50 [3]: 7.59 µM
- TGI [3]: > 25 µM
- GI50 [4]: 15 µM
- TGI [4]: > 25 µM
- GI50 [5]: 10 µM
- TGI [5]: > 25 µM
- GI50 [6]: 9.63 µM
- TGI [6]: > 25 µM
- GI50 [7]: 4.33 µM
- TGI [7]: 18.9 µM
- GI50 [8]: 13.5 µM
- TGI [8]: > 25 µM
- GI50 [9]: 9.14 µM
- TGI [9]: > 25 µM
- GI50 [10]: 7.12 µM
- TGI [10]: > 25 µM
- GI50 [11]: 15.9 µM
- TGI [11]: > 25 µM
- GI50 [12]: 11.3 µM
- TGI [12]: > 25 µM
- GI50 [13]: 10.1 µM
- TGI [13]: > 25 µM
- GI50 [14]: 9.13 µM
- TGI [14]: > 25 µM
- GI50 [15]: 9.06 µM
- TGI [15]: > 25 µM
- GI50 [16]: 15.7 µM
- TGI [16]: > 25 µM
- GI50 [17]: 4.86 µM
- TGI [17]: 15 µM
- GI50 [18]: 7.69 µM
- TGI [18]: > 25 µM
- GI50 [19]: 15 µM
- TGI [19]: > 25 µM
- GI50 [20]: 11.1 µM
- TGI [20]: > 25 µM
- GI50 [21]: 14.1 µM
- TGI [21]: > 25 µM
- GI50 [22]: 7.39 µM
- TGI [22]: > 25 µM
- GI50 [23]: 9.04 µM
- TGI [23]: > 25 µM
- GI50 [24]: > 25 µM
- TGI [24]: > 25 µM
- GI50 [25]: 11.5 µM
- TGI [25]: > 25 µM
- GI50 [26]: 14.1 µM
- TGI [26]: > 25 µM
- GI50 [27]: 8.18 µM
- TGI [27]: > 25 µM
- GI50 [28]: 9.53 µM
- TGI [28]: > 25 µM
- GI50 [29]: 22.9 µM
- TGI [29]: > 25 µM
- GI50 [30]: 14.3 µM
- TGI [30]: > 25 µM
- GI50 [31]: 13.6 µM
- TGI [31]: > 25 µM
- GI50 [32]: 11.9 µM
- TGI [32]: > 25 µM
- GI50 [33]: 11.6 µM
- TGI [33]: > 25 µM
- GI50 [34]: 8.44 µM
- TGI [34]: > 25 µM
- GI50 [35]: 7.42 µM
- TGI [35]: 23.8 µM
- GI50 [36]: 17 µM
- TGI [36]: > 25 µM
- GI50 [37]: 9.32 µM
- TGI [37]: > 25 µM
- GI50 [38]: 7.74 µM
- TGI [38]: > 25 µM
- GI50 [39]: 7.9 µM
- TGI [39]: > 25 µM
- GI50 [40]: 15.1 µM
- TGI [40]: > 25 µM
- GI50 [41]: 10.7 µM
- TGI [41]: > 25 µM
- GI50 [42]: > 25 µM
- TGI [42]: > 25 µM
- GI50 [43]: 14.2 µM
- TGI [43]: > 25 µM
- GI50 [44]: 16 µM
- TGI [44]: > 25 µM
- GI50 [45]: 10 µM
- TGI [45]: > 25 µM
- GI50 [46]: 7.71 µM
- TGI [46]: > 25 µM
- GI50 [47]: 6.76 µM
- TGI [47]: > 25 µM
- GI50 [48]: 9.49 µM
- TGI [48]: > 25 µM
- GI50 [49]: 6.76 µM
- TGI [49]: 20.4 µM
- GI50 [50]: 16.9 µM
- TGI [50]: > 25 µM
- GI50 [51]: 19.4 µM
- TGI [51]: > 25 µM
- GI50 [52]: 4.59 µM
- TGI [52]: 13.3 µM
- GI50 [53]: 14.2 µM
- TGI [53]: > 25 µM
- GI50 [54]: 17.8 µM
- TGI [54]: > 25 µM
- GI50 [55]: 6.82 µM
- TGI [55]: 20.2 µM
- GI50 [56]: 15.9 µM
- TGI [56]: > 25 µM
- GI50 [57]: 9.15 µM
- TGI [57]: > 25 µM
